# Data from patent US20250235543A1, “MODIFIED PROTEINS AND PROTEIN DEGRADERS” (Cullgen (Shanghai), Inc., priority 2021, published 2025).
# Read-outs that look alike come from different tables or passages of the source.
# Key:
# CDK4 = molecular target: T1, CDK4 (Homo sapiens, UniProt P11802); experiment: CDK4 percentage degradation in Calu-1 cells (immunoblotting); format: cell-based; details: read-out: CDK4 Degradation (200 nM)
# T1 construct: endogenous in cells; host or cells: Calu-1
# In short: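 CDK4 degradation was measured by immunoblotting. Cells were washed in cold PBS and lysed in RIPA buffer with inhibitors for 30 min at 4° C., then spun at 13,000 rpm to clear. After BCA protein determination, lysates were heated at 99° C. for 5 min in Laemmli buffer, resolved on SDS-PAGE, imaged on a ChemiDoc MP with ECL substrate, and band intensities quantified.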
# cyclin D1 = experiment: Cyclin D1 percentage degradation in Calu-1 cells (immunoblotting); format: cell-based; details: 200 nM, 16 hours
# In short: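 Cyclin D1 degradation was assessed by western blot. Clarified lysates, obtained by RIPA lysis with inhibitors and centrifugation at 13,000 rpm, were normalized by BCA protein assay and separated by SDS-PAGE. Bands were detected with Western ECL Substrate on a Bio-Rad ChemiDoc MP Imaging system and quantified in Image Lab software to derive percentage degradation.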
# T1 sequence (P11802 2-303 limits assumed): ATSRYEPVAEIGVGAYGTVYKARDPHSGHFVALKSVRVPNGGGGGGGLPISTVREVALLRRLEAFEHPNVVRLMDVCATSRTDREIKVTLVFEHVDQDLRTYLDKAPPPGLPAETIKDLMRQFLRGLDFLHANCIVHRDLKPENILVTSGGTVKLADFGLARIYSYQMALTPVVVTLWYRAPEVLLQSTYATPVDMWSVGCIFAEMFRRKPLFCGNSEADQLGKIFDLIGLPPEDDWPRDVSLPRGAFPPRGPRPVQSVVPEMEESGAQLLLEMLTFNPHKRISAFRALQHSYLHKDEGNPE
# T1 sequence (P24385 whole entry partner): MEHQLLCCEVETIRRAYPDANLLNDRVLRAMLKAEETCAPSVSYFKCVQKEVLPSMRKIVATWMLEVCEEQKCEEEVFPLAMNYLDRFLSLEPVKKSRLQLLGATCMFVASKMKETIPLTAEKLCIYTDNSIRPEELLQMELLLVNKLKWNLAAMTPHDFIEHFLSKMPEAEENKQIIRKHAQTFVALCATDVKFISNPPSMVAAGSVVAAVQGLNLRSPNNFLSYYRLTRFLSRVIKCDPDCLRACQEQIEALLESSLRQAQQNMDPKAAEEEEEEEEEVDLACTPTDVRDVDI
# T1 sequence (Q16531 2-1140 limits assumed, further chain): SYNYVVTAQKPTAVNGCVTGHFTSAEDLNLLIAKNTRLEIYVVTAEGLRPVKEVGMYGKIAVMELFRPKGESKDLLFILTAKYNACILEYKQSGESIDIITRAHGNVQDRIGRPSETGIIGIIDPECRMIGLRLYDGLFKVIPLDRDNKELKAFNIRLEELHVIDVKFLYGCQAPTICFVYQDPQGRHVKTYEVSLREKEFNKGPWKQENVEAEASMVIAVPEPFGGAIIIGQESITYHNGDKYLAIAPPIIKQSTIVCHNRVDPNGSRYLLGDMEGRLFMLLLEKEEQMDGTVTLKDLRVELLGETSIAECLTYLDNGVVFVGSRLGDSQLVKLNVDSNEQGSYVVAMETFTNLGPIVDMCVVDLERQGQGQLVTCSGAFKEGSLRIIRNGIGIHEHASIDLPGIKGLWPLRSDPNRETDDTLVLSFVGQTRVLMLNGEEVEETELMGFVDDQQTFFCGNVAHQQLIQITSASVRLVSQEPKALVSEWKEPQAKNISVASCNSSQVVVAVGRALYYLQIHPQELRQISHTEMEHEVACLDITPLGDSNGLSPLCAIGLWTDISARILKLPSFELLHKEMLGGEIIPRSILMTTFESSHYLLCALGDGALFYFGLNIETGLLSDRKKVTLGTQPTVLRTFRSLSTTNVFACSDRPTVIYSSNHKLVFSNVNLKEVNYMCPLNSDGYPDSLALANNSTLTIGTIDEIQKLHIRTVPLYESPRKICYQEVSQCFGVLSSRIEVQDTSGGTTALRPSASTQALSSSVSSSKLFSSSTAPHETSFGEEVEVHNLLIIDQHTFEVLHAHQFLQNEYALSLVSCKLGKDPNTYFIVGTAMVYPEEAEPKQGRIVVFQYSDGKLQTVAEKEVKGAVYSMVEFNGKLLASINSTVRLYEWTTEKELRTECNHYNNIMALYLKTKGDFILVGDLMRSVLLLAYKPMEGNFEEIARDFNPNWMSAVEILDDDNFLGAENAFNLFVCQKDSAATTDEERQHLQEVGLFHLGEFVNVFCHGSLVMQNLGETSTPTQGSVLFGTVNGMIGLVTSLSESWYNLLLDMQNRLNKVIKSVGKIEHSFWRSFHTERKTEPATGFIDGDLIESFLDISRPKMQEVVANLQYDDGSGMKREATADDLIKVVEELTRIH
SMILES,"inhibition at 0.2 µM (CDK4; Calu-1 cells, 200 nM, 16 hours)",CyclinD1 Degradation (200 nM) (cyclin D1),"inhibition at 0.2 µM (CDK4; Calu-1, 16 h)"
"COc1ccc(NC(=O)c2cccc(NCCOCCOCCNC(=O)CN3CCN(c4ccc(Nc5ncc6c(C)c(C(C)=O)c(=O)n(C7CCCC7)c6n5)nc4)CC3)c2C)nn1 [CPD-341, 3-((2-(2-(2-(2-(4-(6-((6-Acetyl-8-cyclopentyl-5-methyl-7-oxo-7,8-dihydropyrido[2,3-d]pyrimidin-2-yl)amino)pyridin-3-yl)piperazin-1-yl)acetamido)ethoxy)ethoxy)ethyl)amino)-N-(6-methoxypyridazin-3-yl)-2-methylbenzamide]",< 30%,D (protein percentage degradation <30%),–
"COc1ccc(NC(=O)c2ccccc2NC(=O)CCOCCOCCNC(=O)CN2CCN(c3ccc(Nc4ncc5c(C)c(C(C)=O)c(=O)n(C6CCCC6)c5n4)nc3)CC2)nc1 [CPD-342, 2-(3-(2-(2-(2-(4-(6-((6-Acetyl-8-cyclopentyl-5-methyl-7-oxo-7,8-dihydropyrido[2,3-d]pyrimidin-2-yl)amino)pyridin-3-yl)piperazin-1-yl)acetamido)ethoxy)ethoxy)propanamido)-N-(5-methoxypyridin-2-yl)benzamide]",50 to 80%,A (protein percentage degradation >=80%),–
"COc1ccc(NC(=O)c2ccccc2NC(=O)CCN2CCN(CCNC(=O)CN3CCN(c4ccc(Nc5ncc6c(C)c(C(C)=O)c(=O)n(C7CCCC7)c6n5)nc4)CC3)CC2)nn1 [CPD-345, 2-(3-(4-(2-(2-(4-(6-((6-Acetyl-8-cyclopentyl-5-methyl-7-oxo-7,8-dihydropyrido[2,3-d]pyrimidin-2-yl)amino)pyridin-3-yl)piperazin-1-yl)acetamido)ethyl)piperazin-1-yl)propanamido)-N-(6-methoxypyridazin-3-yl)benzamide]",50 to 80%,A (protein percentage degradation >=80%),–
"COc1ccc(NC(=O)c2ccccc2NC(=O)CCCCN2CCC(NC(=O)CN3CCN(c4ccc(Nc5ncc6c(C)c(C(C)=O)c(=O)n(C7CCCC7)c6n5)nc4)CC3)CC2)nn1 [CPD-346, 2-(5-(4-(2-(4-(6-((6-Acetyl-8-cyclopentyl-5-methyl-7-oxo-7,8-dihydropyrido[2,3-d]pyrimidin-2-yl)amino)pyridin-3-yl)piperazin-1-yl)acetamido)piperidin-1-yl)pentanamido)-N-(6-methoxypyridazin-3-yl)benzamide]",50 to 80%,A (protein percentage degradation >=80%),–
"COc1ccc(NC(=O)c2ccccc2NC(=O)COCCN2CCC(NC(=O)CN3CCN(c4ccc(Nc5ncc6c(C)c(C(C)=O)c(=O)n(C7CCCC7)c6n5)nc4)CC3)CC2)nn1 [CPD-347, 2-(2-(2-(4-(2-(4-(6-((6-Acetyl-8-cyclopentyl-5-methyl-7-oxo-7,8-dihydropyrido[2,3-d]pyrimidin-2-yl)amino)pyridin-3-yl)piperazin-1-yl)acetamido)piperidin-1-yl)ethoxy)acetamido)-N-(6-methoxypyridazin-3-yl)benzamide]",< 30%,D (protein percentage degradation <30%),–
"COc1ccc(NC(=O)c2ccccc2NC(=O)CCOCCN2CCC(NC(=O)CN3CCN(c4ccc(Nc5ncc6c(C)c(C(C)=O)c(=O)n(C7CCCC7)c6n5)nc4)CC3)CC2)nn1 [CPD-348, 2-(3-(2-(4-(2-(4-(6-((6-Acetyl-8-cyclopentyl-5-methyl-7-oxo-7,8-dihydropyrido[2,3-d]pyrimidin-2-yl)amino)pyridin-3-yl)piperazin-1-yl)acetamido)piperidin-1-yl)ethoxy)propanamido)-N-(6-methoxypyridazin-3-yl)benzamide]",< 30%,D (protein percentage degradation <30%),–
"CC(=O)c1c(C)c2cnc(Nc3ccc(N4CCN(CC(=O)NCCOCCOCCC(=O)Nc5ccccc5C(=O)Nc5ccc(OC6CC6)nn5)CC4)cn3)nc2n(C2CCCC2)c1=O [CPD-350, 2-(3-(2-(2-(2-(4-(6-((6-Acetyl-8-cyclopentyl-5-methyl-7-oxo-7,8-dihydropyrido[2,3-d]pyrimidin-2-yl)amino)pyridin-3-yl)piperazin-1-yl)acetamido)ethoxy)ethoxy)propanamido)-N-(6-cyclopropoxypyridazin-3-yl)benzamide]",50 to 80%,A (protein percentage degradation >=80%),–
"CC(=O)c1c(C)c2cnc(Nc3ccc(N4CCN(C(=O)CCOCCOCCOCCC(=O)Nc5ccccc5C(=O)Nc5nc(C)c(C)s5)CC4)cn3)nc2n(C2CCCC2)c1=O [CPD-357, 2-(3-(2-(2-(3-(4-(6-((6-Acetyl-8-cyclopentyl-5-methyl-7-oxo-7,8-dihydropyrido[2,3-d]pyrimidin-2-yl)amino)pyridin-3-yl)piperazin-1-yl)-3-oxopropoxy)ethoxy)ethoxy)propanamido)-N-(4,5-dimethylthiazol-2-yl)benzamide]",–,A (protein percentage degradation >=80%),50 to 80%

# Continued, in another order:
"inhibition at 0.2 µM (CDK4; Calu-1 cells, 200 nM, 16 hours)",SMILES,CyclinD1 Degradation (200 nM) (cyclin D1),"inhibition at 0.2 µM (CDK4; Calu-1, 16 h)"
< 30%,"CC(=O)c1c(C)c2cnc(Nc3ccc(N4CCN(CC(=O)NCCOCCOCCC(=O)Nc5ccccc5C(=O)Nc5ccc(OC(C)C)nn5)CC4)cn3)nc2n(C2CCCC2)c1=O [CPD-351, 2-(3-(2-(2-(2-(4-(6-((6-Acetyl-8-cyclopentyl-5-methyl-7-oxo-7,8-dihydropyrido[2,3-d]pyrimidin-2-yl)amino)pyridin-3-yl)piperazin-1-yl)acetamido)ethoxy)ethoxy)propanamido)-N-(6-isopropoxypyridazin-3-yl)benzamide]",D (protein percentage degradation <30%),–
50 to 80%,"CC(=O)c1c(C)c2cnc(Nc3ccc(N4CCN(CC(=O)NCCOCCOCCC(=O)Nc5cc6c(cc5C(=O)Nc5ccc(C)cn5)CCCN6)CC4)cn3)nc2n(C2CCCC2)c1=O [CPD-358, 7-(3-(2-(2-(2-(4-(6-((6-Acetyl-8-cyclopentyl-5-methyl-7-oxo-7,8-dihydropyrido[2,3-d]pyrimidin-2-yl)amino)pyridin-3-yl)piperazin-1-yl)acetamido)ethoxy)ethoxy)propanamido)-N-(5-methylpyridin-2-yl)-1,2,3,4-tetrahydroquinoline-6-carboxamide]",A (protein percentage degradation >=80%),–
50 to 80%,CC(=O)c1c(C)c2cnc(Nc3ccc(N4CCN(CC(=O)NCCOCCOCCC(=O)Nc5c(C(=O)Nc6ccc(C)cn6)ccc6[nH]ncc56)CC4)cn3)nc2n(C2CCCC2)c1=O [CPD-359],A (protein percentage degradation >=80%),–
> 80%,"CC(=O)c1c(C)c2cnc(Nc3ccc(N4CCN(CC(=O)NCCOCCOCCC(=O)Nc5cc6c(cc5C(=O)Nc5ccc(C)cn5)CCN6)CC4)cn3)nc2n(C2CCCC2)c1=O [CPD-360, 6-(3-(2-(2-(2-(4-(6-((6-Acetyl-8-cyclopentyl-5-methyl-7-oxo-7,8-dihydropyrido[2,3-d]pyrimidin-2-yl)amino)pyridin-3-yl)piperazin-1-yl)acetamido)ethoxy)-ethoxy)propanamido)-N-(5-methylpyridin-2-yl)indoline-5-carboxamide]",A (protein percentage degradation >=80%),–
50 to 80%,"CC(=O)c1c(C)c2cnc(Nc3ccc(N4CCN(CC(=O)NCCOCCOCCC(=O)Nc5c(C(=O)Nc6ccc(C)cn6)ccc6[nH]ccc56)CC4)cn3)nc2n(C2CCCC2)c1=O [CPD-361, 4-(3-(2-(2-(2-(4-(6-((6-acetyl-8-cyclopentyl-5-methyl-7-oxo-7,8-dihydropyrido[2,3-d]pyrimidin-2-yl)amino)pyridin-3-yl)piperazin-1-yl)acetamido)ethoxy)ethoxy)propanamido)-N-(5-methylpyridin-2-yl)-1H-indole-5-carboxamide]",A (protein percentage degradation >=80%),–
< 30%,"CC(=O)c1c(C)c2cnc(Nc3ccc(N4CCN(CC(=O)NCCOCCOCCC(=O)Nc5c(C(=O)Nc6ccc(C)cn6)ccc6ncccc56)CC4)cn3)nc2n(C2CCCC2)c1=O [CPD-362, 5-(3-(2-(2-(2-(4-(6-((6-Acetyl-8-cyclopentyl-5-methyl-7-oxo-7,8-dihydropyrido[2,3-d]pyrimidin-2-yl)amino)pyridin-3-yl)piperazin-1-yl)acetamido)ethoxy)ethoxy)propanamido)-N-(5-methylpyridin-2-yl)quinoline-6-carboxamide]",D (protein percentage degradation <30%),–
50 to 80%,"CC(=O)c1c(C)c2cnc(Nc3ccc(N4CCN(CC(=O)NCCCCCNc5ccccc5C(=O)Nc5nc(C)c(C)s5)CC4)cn3)nc2n(C2CCCC2)c1=O [CPD-363, 2-((5-(2-(4-(6-((6-Acetyl-8-cyclopentyl-5-methyl-7-oxo-7,8-dihydropyrido[2,3-d]pyrimidin-2-yl)amino)pyridin-3-yl)piperazin-1-yl)acetamido)pentyl)amino)-N-(4,5-dimethylthiazol-2-yl)benzamide]",A (protein percentage degradation >=80%),–
50 to 80%,"CC(=O)c1c(C)c2cnc(Nc3ccc(N4CCN(CC(=O)NCCCCCCCNc5ccccc5C(=O)Nc5nc(C)c(C)s5)CC4)cn3)nc2n(C2CCCC2)c1=O [CPD-364, 2-((7-(2-(4-(6-((6-Acetyl-8-cyclopentyl-5-methyl-7-oxo-7,8-dihydropyrido[2,3-d]pyrimidin-2-yl)amino)pyridin-3-yl)piperazin-1-yl)acetamido)heptyl)amino)-N-(4,5-dimethylthiazol-2-yl)benzamide]",A (protein percentage degradation >=80%),–
